Data taken from patent US9265922B2, “System and method for improving outcome of cerebral ischemia” (ASTUCE, INC., priority 2012, dated 2016).
Entries after “also recorded” stand apart in the source; their conditions may differ.

Legend:
[1] = system: humans (normal volunteers); experiment: Tolerability of intranasal nitric oxide in normal volunteers; type: in vivo, human; details: high concentration, delivered intra-nasally and without inhalation
Text: While nitric oxide may be given intranasally and without inhalation into the lungs to intubated, comatose individuals the tolerability of intranasal nitric oxide in awake humans has not previously been investigated. The inventors have tested the effect of nitric oxide in humans (normal volunteers) during intranasal delivery. […] Therefore it can easily be tolerated by awake, non-intubated patients.

intubated rodents = experiment: Cerebral blood flow by cortical laser Doppler during intranasal nitric oxide in intubated rodents; type: in vivo
Protocol: (§1) In intubated rodents, the inventors have shown that cerebral blood flow increases by 100% within 60 minutes of intranasal nitric oxide delivery.

[2] = system: carotid artery occlusion model; experiment: Carotid artery occlusion model, Speckle laser Doppler, intranasal nitric oxide; type: in vivo, rodents
Protocol: as §1
Increase in cerebral blood flow is attributable to focal intranasal or intra-oral effect of nitric oxide rather than to systemic absorption of the gas. […] The effect on cerebral blood flow during intranasal delivery of nitric oxide with concomitant air inhalation into the lungs is therefore a focal effect on intranasal and intracranial vasculature attributable specifically to nitric oxide. […] In a non-intubated patient, nitric oxide inhalation can be prevented by occluding the nasal cavity anterior or posterior to the site of gas delivery. This is achieved by means of an anterior occlusion device such a rigid member, an expandable member, a compressible member, a sponge, a porous member, a plug, a balloon, foam and/or combinations of the foregoing, which prevent inhalation through the nostrils while maintaining a high concentration of nitric oxide in the nasal cavity. A non-intubated patient may be allowed to inhale air into the lungs during nitric oxide delivery into the nasal cavity by an optional central lumen with the distal orifice beyond the sites of nasal gas delivery and occlusion device.

[3] = system: patients with cerebral ischemia; experiment: CT perfusion scanning in intubated patients with cerebral ischemia before and after intranasal nitric oxide; type: in vivo, human

[N]=O [nitric oxide]
tolerability of gas treatment [1]: tolerated
cerebral blood flow (FIG. 8, cortical laser Doppler) (intubated rodents; during intranasal administration): doubling of cerebral blood flow
cerebral blood flow increase (intubated rodents; within 60 minutes of intranasal non-inhaled nitric oxide delivery): 100%
perfusion in the ischemic hemisphere ([2]; both during the carotid occlusion and following ligature release (FIG. 9)): improved
cerebral ischemia (FIG. 9, Speckle laser Doppler tracing) ([2]; intubated rodents given intranasal nitric oxide): reduction of cerebral ischemia
increase in perfusion on L (Cerebral Blood Flow, ACA Watershed) ([3]; Post Rx versus Pre Rx, left ischemic hemisphere): 67% increase in
Mean Transit Time, Changes in ACA Watershed ([3]; Post Rx, Pre Rx 4 sec delay): Normalization
Cerebral Blood Flow, Changes in ACA Watershed ([3]; Post Rx, Pre Rx 37% lower on ischemic side): Normalization,
cerebral perfusion by CT perfusion scanning ([3]; intubated patients with cerebral ischemia, during treatment with intranasal nitric oxide (FIGS. 10, 11)): improvement in cerebral perfusion; also recorded: augmentation of cerebral perfusion and normalization of regional perfusion abnormalities
